* marks the point of attachment. Acm = CC(=O)NC*
Columns and labels:
Jurkat cell line = experiment: In vitro transfection with pRSVLuc (luciferase) condensed on peptides; format: cell-based; conditions: peptide 2 μg/μg plasmid DNA
Protocol: After incubation the cells are lysed and are assayed for gene expression. In the case of the luciferase reporter gene, luciferin and ATP are added to lysed cells and the light emitted is measured with a luminometer (see deWet et al., supra).
Cell lines such as Jurkat and K562 grow in suspension and can be transfected and the level of transgene expression (luciferase activity) determined b) the following method. Cells are harvested on the day of assay by centrifugation at 1200 rpm for 5 mins at room temperature. The cell pellet is resuspended in phosphate buffered saline and re-centrifuged. This operation is performed twice. […] The cells are then aliquoted into tubes and 0.75 ml of RPMI medium added, followed by 0.04-0.08 ml of 100 mM Chloroquine and finally 0.25 ml of DNA-complex solution. The transfection is then allowed to proceed by incubating the cells at 37° C. for 4 h. After this time the cells are harvested by centrifugation at 2000 rpm. The cells are then suspended in 1 ml of RPMI medium and re-centrifuged. Finally the cells are suspended in 0.5 ml RPMI medium containing 10% foetal bovine serum. Each 0.5 ml of transfected cell suspension is transferred to a well of a 12 well plastic culture plate containing 1.5 ml of RPMI 10% FBS. The original transfection tube is rinsed with a further 1 ml of medium and the wash transferred to the culture dish making a final volume of 3 ml. The culture plate is then incubated at 37° C. for 24-90 h in an atmosphere of 5% CO2. The contents of each well in the culture dish are transferred to centrifuge tubes and the cells collected by centrifugation at 13000 rpm. The pellet is resuspended in 0.12 ml of Lysis Buffer (100 mM sodium phosphate, pH 7.8; 8 mM magnesium chloride, 1 mM EDTA; 1% Triton X-100 and 15% glycerol) and agitated with a pipette. The lysate is centrifuged at 13000 rpm for 1 min and the supernatant collected. 80 μl of the supernatant are transferred to a luminometer tube. The luciferase activity is then assayed using a Berthold Lumat L9501 luminometer. The assay buffer used is Lysis Buffer containing 10 mM Luciferin and 100 mM ATP. Light produced by the luciferase is integrated over 4s and is described as relative light units (RLU). The data are converted to RLU/ml of lysate, RLU/cell or RLU/mg protein (protein concentration of the lysate having been determined in this case by the BioRAD Lowry assay.
In order to compare the relative efficiency of transfection of complexes composed of different NBC condensation peptides or poly-L-lysine, pRSVLuc DNA at a concentration of 100 μg/ml was condensed using peptide at a ratio of 2 μg/μg plasmid DNA as described herein with the following deviation: prior to addition to the cells (Jurkat cell line) the complexes were diluted to 20 μg/ml with 10% PEG 10 000; 37 mM sodium chloride; 25 mM sodium phosphate, pH 7.4. The cells were assayed for luciferase after 24 h.

[1] = tested on: plasmid nucleic acid pRSVLuc; experiment: Surface plasmon resonance (BIAcore) binding kinetics of peptides/conjugates to immobilized biotinylated plasmid DNA; conditions: for ka: apparent rate constant for association; for ka / kd: SPR, PBS, 25° C.; for kd: apparent rate constant for dissociation
Protocol: In the examples described below, SPR was detected using the BIAcore system. This machine contained an SPR detector and an integrated microfluidic cartridge which is engineered such that an analyte solution (cationic peptide) is continuously passed over the sensor chip. The sensor chip consists of a glass plate coated with a thin film of gold covered in a layer of carboyxymethyl dextran. The chip used has a dextran layer to which streptavidin is covalently attached. The chip is prepared for use by adding biotinylated nucleic acid which will be bound to the chip via the streptavidin-biotin interaction, and the same chip is used in a series of experiments.
As material binds to the immobilized nucleic acid molecule on the sensor chip, the SPR angle of plane polarized light shining on the surface of the chip is monitored by the detector. Changes in angle are defined as resonance units (RU) and data are collected every second. Background effects are detected and automatically subtracted by the use of a control flow cell in line with the nucleic acid flow cell.
A typical sensorgram has three phases: an association phase, an equilibrium phase and a dissociation phase (see FIG. 1). The rise in signal occurs as more peptide binds to the immobilized plasmid DNA until equilibrium conditions are reached. The height of the peak is directly proportional to the mass of peptide bound. If the flow continues with buffer containing no peptide, peptide begins to dissociate from the complex and the resonance signal is reduced. The sensorgram can be used to compute apparent rate constants for each of the three individual processes.
(1) dC/dt=ka [PF ] [Pmax -PB ]-kd [PB ]
Measurement of Binding Kinetics by Surface Plasmon Resonance
A 6 kilobase (kb) plasmid DNA (pRSVLuc) was biotinylated using photoactivatable biotin (Pierce and Warriner) as per manufacturer's instructions.
A sensor chip with immobilized streptavidin (SA5) was conditioned following manufacturer's instructions, i.e., three one-minute injections of 1 M NaCl: 50 mM NaOH followed by one 1 min injection of 0.5% SDS. Flow rate on the BlAcore sensing device was 20 μl per min, running buffer was phosphate buffered saline (PBS). Flow path was flow cells 1 and 2.
The flow path was switched to flow cell 2 only and the flow rate was reduced to 10 μl per minute. Biotinylated plasmid at a concentration of […] in 0.5M NaCl was injected for 3 mins.
Phosphate buffered saline was used as running buffer at a flow rate of 20 μl per minute. The flow path was over flow cells 1 and 2. Flow cell 1 was used as a reference cell. The experiments were carried out at a temperature of 25° C.
Peptides were injected at various concentrations for three minutes. The injection was followed by a 5 min dissociation phase before the injection port was washed. The sensor chip was regenerated by the injection of 2M NaCl for 1 min. If necessary, this injection was repeated to bring the response back down to baseline before the next peptide sample was injected.
The data was analysed using the methods described in the handbook (BIAevaluation 2.1. Software Handbook, Pharmacia Biosensor AB, Uppsala, Sweden).
Essentially the plots were evaluated as follows: The dissociation constant, kd, was determined first. A curve or family of curves (same NBC at different concentrations) were plotted as response (Y) versus time as Ln (Yo/Y) versus time. In the area where the Ln(Yo/Y) curve was linear, a fit of the default dissociation model [AB]=[A]+[B] was made. The association constant, ka, was then calculated by fitting the related association model on that part of the association curve where a plot of In(abs(dY/dt) versus time was linear. KD were approximated by dividing the calculated kd with the calculated ka.

[2] = tested on: KLN-205 squamous epithelial syngenic tumour cells; experiment: In vivo transfection of KLN-205 tumours in DBA2 mice by local injection of peptide/plasmid complexes (nitroreductase immunostaining); set-up: species or system mouse; conditions: 0.5 μg peptide/μg DNA, intratumoural injection
Protocol: A representative in via cell transfection system is transfection of tumor cells using a murine carcinoma model.
The murine carcinoma model DBA2 containing the squamous epithelial syngenic tumour cell line KLN-205 was prepared as described in the Examples. A transfecting complex was prepared using a solution of plasmid DNA encoding a reporter gene or, for example, nitroreductase and a selected NBC peptide 0.5 μg peptide/μg DNA, as described herein. Where desired, a conjugate peptide was added to the transfecting complex, at a concentration of 0.1-0.3 μg […] peptide/μg DNA.
Transfection efficiency may be determined in a number of ways, including assessing the effect of the reporter gene on the target tissue, or by quantitating the gene product. Below, tissues samples were obtained and nitroreductase gene expression was ascertained via staining of tissue sections.
The ability to transfect tumor cells in vivo in mice was tested using plasmid nucleic acid carrying the nitroreductase reporter gene condensed on each of the following peptides: NBC15, NBC8, NBC9, NBC11, NBC7.
DBA2--male mice, aged 5-10 weeks were injected subcutaneously in each flank with a squamous epithelial syngenic tumour cell line KLN-205. The cell line was grown up in 175 ml T-flasks in standard EMEM medium containing 10% foetal calf serum. When the cells reached a density of 4×10^6 they were suspended by a standard trypsinization technique, washed in PBS and diluted to a final concentration of […].
The anaesthetic was Enflurane (Alynane; Anaquest, Ltd., Windlesham, Surrey UK): Ketamine (10% Ketaset, Willows Francis Veterinary, Cramley, West Sussex, UK); Rompun (2%, Bayer UK, Ltd., Suffolk, UK). For 10 ml anaesthetic mixture: 8.5 ml PBS; 1 ml Ketamine; 0.5 ml Rompun. Each animal was injected intra-peritoneally with 200 μl/animal using 1 ml syringe with 25 gauge needle. Once anaesthetized, the tumour is manipulated between the fingers lifting it slightly away from the animal's body and at the same time apply minimum pressure to the tumour. Using a 0.5 ml insulin needle the formulated delivery vehicle (a plasmid containing the E. coli nitroreductase gene condensed on a peptide at a ratio of 0.5 μg peptide/μg DNA) to be injected is taken up and the tumour is injected horizontally trying to avoid any visible blood vessels and necrotic or abnormal tissue. Daily monitoring is continued until the experiment is terminated.
7μ sections of frozen tumour tissue are prepared using standard methods and a Cryostat and air dried. Sections are fixed with freshly prepared 4% PFA/PBS for 30 mins at room temperature and then washed twice with 0.01% Tween-20/PBS 5 mins each wash. Sections are then immersed in 0.25% hydrogen peroxide/PBS, at room temperature (20C.) for 30 mins, and then washed three times in 0.01% Tween 20/PBS for 5 mins each wash. Sections are then permeabilised by treatment with ice cold 0.1 % TRITON X-100 for 5 mins, followed by a further two washes in 0.01% Tween-20/PBS 5mins each wash. The sections are then blocked with 5% NGS/PBS 60mins at room temperature in a wetbox. After decanting the blocking solution, 0.5 ml diluted antiserum/slide (1:400 in 2.5% NGS) is added and the sections incubated for 60 mins at room temperature. Slides are then washed three times in 0.01% Tween-20/PBS 5 mins each wash. Secondary antibody (0.5 ml) from ABC Elite Vector stain kit is added as follows and incubated 30 mins at room temperature in a wetbox.
The tumour is a murine syngenic squamous carcinoma produced by subcutaneous injection of KLN205 cells. When the tumours were approximately 4 mm in diameter they were injected with 20 μl of plasmid DNA formulated with the NBC15 peptide. After 48 h the tumours were excised and sectioned by standard histological techniques and immunostained for expression of the transgene (E. coli nitroreductase). […] In this case the tumours were injected with the same plasmid formulated in 0.5 μg NBC9 peptide/μg DNA.

Substance	transfection compared with polydisperse poly-L-lysine (Jurkat cell line; luciferase)	ka [1] [M⁻¹ s⁻¹]	kd [1] [s⁻¹]	association reaction ([1]; shape of association kinetics)	ranking by numbers of transfected tumor cells (most to least efficient) [2]	rank in order of relative transfection efficiency (most to least efficient) (Jurkat cell line; luciferase after 24 h, FIG. 7)	number of transfected tumor cells / level of transfection ([2]; 48 h, nitroreductase immunostaining)
H-TKKKKKKKKKKKKKKKKKKC-OH [NBC14]	significantly better transfection agents than the polydisperse poly-L-lysine	211000	0.00075	–	–	–	–
H-TRPAWRRAKRRAARRCGVSARRAARRAWRRE-OH [NBC7]	–	3670	0.000133	clear biphasic kinetics	NBC15>NBC8, NBC9, NBC11>NBC7>>>poly-lysine	–	–
NH2-KKSPKKAKKPAAKKSPKKAKKPAAKKSPKKAKKPAYC(Acm)-COOH (H-KKSPKKAKKPAAKKSPKKAKKPAAKKSPKKAKKPAYC(Acm)-OH; SMILES CC(=O)NCSC[C@H](NC(=O)[C@H](Cc1ccc(O)cc1)NC(=O)[C@H](C)NC(=O)[C@@H]1CCCN1C(=O)[C@H](CCCCN)NC(=O)[C@H](CCCCN)NC(=O)[C@H](C)NC(=O)[C@H](CCCCN)NC(=O)[C@H](CCCCN)NC(=O)[C@@H]1CCCN1C(=O)[C@H](CO)NC(=O)[C@H](CCCCN)NC(=O)[C@H](CCCCN)NC(=O)[C@H](C)NC(=O)[C@H](C)NC(=O)[C@@H]1CCCN1C(=O)[C@H](CCCCN)NC(=O)[C@H](CCCCN)NC(=O)[C@H](C)NC(=O)[C@H](CCCCN)NC(=O)[C@H](CCCCN)NC(=O)[C@@H]1CCCN1C(=O)[C@H](CO)NC(=O)[C@H](CCCCN)NC(=O)[C@H](CCCCN)NC(=O)[C@H](C)NC(=O)[C@H](C)NC(=O)[C@@H]1CCCN1C(=O)[C@H](CCCCN)NC(=O)[C@H](CCCCN)NC(=O)[C@H](C)NC(=O)[C@H](CCCCN)NC(=O)[C@H](CCCCN)NC(=O)[C@@H]1CCCN1C(=O)[C@H](CO)NC(=O)[C@H](CCCCN)NC(=O)[C@@H](N)CCCCN)C(=O)O) [NBC13]	–	–	–	–	–	NBC11>NBC13>NBC8>>NBC15>>>polylysine	–
NH2-TKKSPKKAKKPAAKKSPKKAKKPAAKKSPKKAKKPAAC(Acm)-COOH (H-TKKSPKKAKKPAAKKSPKKAKKPAAKKSPKKAKKPAAC(Acm)-OH; SMILES CC(=O)NCSC[C@H](NC(=O)[C@H](C)NC(=O)[C@H](C)NC(=O)[C@@H]1CCCN1C(=O)[C@H](CCCCN)NC(=O)[C@H](CCCCN)NC(=O)[C@H](C)NC(=O)[C@H](CCCCN)NC(=O)[C@H](CCCCN)NC(=O)[C@@H]1CCCN1C(=O)[C@H](CO)NC(=O)[C@H](CCCCN)NC(=O)[C@H](CCCCN)NC(=O)[C@H](C)NC(=O)[C@H](C)NC(=O)[C@@H]1CCCN1C(=O)[C@H](CCCCN)NC(=O)[C@H](CCCCN)NC(=O)[C@H](C)NC(=O)[C@H](CCCCN)NC(=O)[C@H](CCCCN)NC(=O)[C@@H]1CCCN1C(=O)[C@H](CO)NC(=O)[C@H](CCCCN)NC(=O)[C@H](CCCCN)NC(=O)[C@H](C)NC(=O)[C@H](C)NC(=O)[C@@H]1CCCN1C(=O)[C@H](CCCCN)NC(=O)[C@H](CCCCN)NC(=O)[C@H](C)NC(=O)[C@H](CCCCN)NC(=O)[C@H](CCCCN)NC(=O)[C@@H]1CCCN1C(=O)[C@H](CO)NC(=O)[C@H](CCCCN)NC(=O)[C@H](CCCCN)NC(=O)[C@@H](N)[C@@H](C)O)C(=O)O) [NBC9]	–	97800	0.00293	–	NBC15>NBC8, NBC9, NBC11>NBC7>>>poly-lysine	–	Although transfection is evident the level of transfection is noticeably lower

Source: patent US6218112A, “Optimization of gene delivery and gene delivery system” (Cobra Therapeutics Limited, priority 1997, dated 2001)
